Data taken from PubChem BioAssay (NCI).
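1) Cells in 96-well plates. 2) Compound, 48 h, 5 concentrations. 3) Linear interpolation between surrounding doses. 4) Unreached endpoint = highest concentration. GI50: concentration for 50% inhibition of growth. TGI denotes the concentration required for complete inhibition of growth.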

Assays:
Assay in all cases: NCI anticancer screen, dose series, 48 h
HOP-92 NSCLC = tested on: HOP-92 NSCLC
SNB-75 CNS = tested on: SNB-75 CNS
SF-539 CNS = tested on: SF-539 CNS
NCI-H460 lung = tested on: NCI-H460 lung
SW-620 colon = tested on: SW-620 colon
A498 renal = tested on: A498 renal
T-47D breast = tested on: T-47D breast
MDA-MB-435 = tested on: MDA-MB-435
SN12C renal = tested on: SN12C renal
NCI/ADR-RES ovarian = tested on: NCI/ADR-RES ovarian

Structure (SMILES) | TGI (HOP-92 NSCLC) | TGI (SNB-75 CNS) | TGI (SF-539 CNS) | TGI (NCI-H460 lung) | TGI (SW-620 colon) | TGI (A498 renal) | GI50 (T-47D breast) | TGI (T-47D breast) | GI50 (HOP-92 NSCLC) | GI50 (MDA-MB-435) | TGI (MDA-MB-435) | GI50 (SNB-75 CNS) | GI50 (SN12C renal) | TGI (SN12C renal) | GI50 (SF-539 CNS) | GI50 (NCI/ADR-RES ovarian) | TGI (NCI/ADR-RES ovarian) | GI50 (NCI-H460 lung) | GI50 (SW-620 colon) | GI50 (A498 renal)
CC(c1ccccc1)/[N+]([O-])=C/c1ccccc1 (centres undefined) | > 100 µM | > 100 µM | > 100 µM | > 100 µM | > 100 µM | > 100 µM |  |  |  |  |  |  |  |  |  |  |  |  |  | 
C[C@]12CCc3sc(Nc4ccc(O)cc4)nc3C1=CC[C@@H]1[C@@H]2CC[C@]2(C)C(=O)CC[C@@H]12 | 5.65 µM | > 100 µM | 3.59 µM | 10.5 µM | 4.73 µM | 80.6 µM | 1.95 µM | 5.03 µM | 2.39 µM | 2.08 µM | 5.32 µM | 2.76 µM | 2.91 µM | > 100 µM | 1.76 µM | 3.27 µM | > 100 µM | 3.01 µM | 2.08 µM | 14.2 µM
NC(=S)N/N=C1\c2ccccc2CCC1CCC1(O)CCc2ccccc2C1=O (centres undefined) |  | 45 µM | 29.5 µM | 32.1 µM | > 100 µM |  |  | 28.9 µM |  |  | 46.4 µM |  |  | 39.8 µM |  |  | 79.1 µM |  |  | 
CCOP(=O)(CN=C(c1ccccc1)c1ccccc1)OCC | > 100 µM | > 100 µM |  | > 100 µM | > 100 µM | > 100 µM |  | > 100 µM |  |  | > 100 µM |  |  | > 100 µM |  |  | > 100 µM |  |  | 
Cc1ccc(Nc2nc(NS(=O)(=O)c3cc(C(=O)Nc4ccc(Cl)cc4)c(Cl)cc3S)n[nH]2)cc1 |  | > 100 µM | > 100 µM | > 100 µM | > 100 µM |  |  | > 100 µM |  |  | > 100 µM |  |  | > 100 µM |  |  | > 100 µM |  |  | 
CCc1nnc(-c2nsc3ccccc23)s1 | > 100 µM | > 100 µM | > 100 µM | > 100 µM | > 100 µM |  |  |  |  |  |  |  |  | > 100 µM |  |  |  |  |  | 
O=C(O)CC1(CC(=O)O)Nc2ccccc2SC1=O | > 100 µM | > 100 µM |  | > 100 µM | > 100 µM | > 100 µM |  | > 100 µM |  |  | > 100 µM |  |  | > 100 µM |  |  | > 100 µM |  |  | 
O=C(O)CC1OCC=C2CN3CCC45C6=CC(=O)C(=O)C([N+](=O)[O-])=C6NC4C1C2CC35 (centres undefined) | > 100 µM | > 100 µM | > 100 µM | > 100 µM | > 100 µM | > 100 µM |  | > 100 µM |  |  | 31.3 µM |  |  | > 100 µM |  |  | > 100 µM |  |  | 
CC(CCC(=O)O)C1CCC2C3C(O)CC4CC(O)CCC4(C)C3CC(O)C12C (centres undefined) | > 100 µM | > 100 µM | > 100 µM | > 100 µM | > 100 µM | > 100 µM |  | > 100 µM |  |  | > 100 µM |  |  | > 100 µM |  |  | > 100 µM |  |  | 
COC1=CC(=O)c2c(O)c3c(c(O)c2C1=O)C=C(C)OC3O (centres undefined) | 20.9 µM | 3.97 µM | 3.4 µM | 3.18 µM | 2.84 µM | 4.91 µM |  | 7.05 µM |  |  | 2.5 µM |  |  | 2.08 µM |  |  | 3.76 µM |  |  | 
CN1CCN(c2cc(-c3cc4ccccc4o3)oc(=O)c2C#N)CC1 |  | > 100 µM | > 100 µM | > 100 µM | > 100 µM | > 100 µM |  |  |  |  |  |  |  | > 100 µM |  |  |  |  |  | 
COc1ccc(-c2c3c(nc4nc(SC)nc(SC)c24)CCCC3)cc1OC | > 100 µM | > 100 µM | > 100 µM | > 100 µM | > 100 µM | > 100 µM |  | > 100 µM |  |  | > 100 µM |  |  | > 100 µM |  |  |  |  |  | 
CC1OC1C(=O)C1(O)C(C)C(O)C23OC2(C(O)c2c(O)cccc2C3=O)C1O (centres undefined) | 0.0971 µM | 0.747 µM | 0.276 µM | 0.565 µM | 1.21 µM | 1.2 µM |  |  |  |  |  |  |  | 0.343 µM |  |  | 0.732 µM |  |  | 
C/C(=N\NC(=S)Nc1ccc(C)cc1)c1nc2ncccc2[nH]1 | 24.1 µM | 22.5 µM | 5.71 µM | 13.6 µM | 24 µM | 23.4 µM |  | 18 µM |  |  | 13.3 µM |  |  | 30.8 µM |  |  | > 100 µM |  |  | 
